# Data from paper PMC11784096, “Synthesis, antibacterial evaluation and in silico studies of novel 2-(benzo[d]thiazol-2-yl)-N-arylacetamides and their derivatives as potential DHFR inhibitors” (BMC Chemistry, 2025).
# Read-outs that look alike come from different tables or passages of the source.
# Assays:
# K. pneumonia [1] = test: Agar diffusion method, inhibition zone diameter; assay type: cell-based, Klebsiella pneumonia; details: Gram-negative
# From the text: (§1) The bacterial growth inhibition activity of most of the newly synthesized compounds was examined against different Gram-positive and Gram-negative strains. The Agar diffusion method was used to assess the antibacterial and antifungal activity. The Gram-negative strains were: E. coli, K. pneumonia, P. aeruginosa and A. baumannii, the Gram-positive strains were: St. aureus, St. mutans and the standard antibiotics were gentamicin, tigecycline and ampicillin.
# (§2) The agar-based media plate surface was inoculated by spreading a volume of the microbial inoculum over the entire agar surface.
# (§3) Using a sterile cork borer or a tip, a hole with a diameter of 6 to 8 mm was made.
# (§4) Using a micropipette, (20 µL) volume of the antimicrobial agent or extract solution at the desired concentration was introduced into the well.
# (§5) The inoculated plates were incubated under suitable conditions depending upon the tested microorganism. The antimicrobial agent diffused through the agar medium and inhibited the growth of the microbial strain tested.
# (§6) After a suitable incubation period (16 to 48 hours) according to the optimum growth conditions, the resulting inhibition zone diameters (in mm) around the wells were measured to the nearest whole millimeter at the point at which there is a prominent reduction in growth. If growth is insufficient at the recommended times, the plates should be re-incubated and read later.
# K. pneumonia [2] = test: Minimum inhibition concentration, serial dilution; assay type: cell-based, Klebsiella pneumonia; details: Klebsiella pneumoniae, 37 °C
# Description: (§7) For each strain, three to five isolated colonies were selected from the fresh agar plate and transferred into a tube containing 3-4 ml of the sterile broth medium. The bacterial suspension was mixed well and incubated at 35-37 °C for 2-6 hours. […] After that, 1 mg of the tested compound (antimicrobial agent) was dissolved in 1 ml of DMSO and a two-fold serial dilution was done using a broth medium. A fixed volume of the prepared bacterial inoculum was added to each tube and incubated at 37 °C for 16-20 hours. The MIC is defined as the lowest concentration of the antimicrobial agent that inhibits visible growth of the tested isolate as observed with the unaided eye.
# St. aureus [3] = test: Minimum inhibition concentration, serial dilution; assay type: cell-based; details: Staphylococcus aureus, 37 °C
# Description: as §7
# St. mutans [4] = test: Minimum inhibition concentration, serial dilution; assay type: cell-based; details: Streptococcus mutans, 37 °C
# Description: as §7
# St. aureus [5] = test: Agar diffusion method, inhibition zone diameter; assay type: cell-based, Staphylococcus aureus; details: Gram-positive
# From the text: as §1, §2, §3, §4, §5, §6
# E. coli [6] = test: Agar diffusion method, inhibition zone diameter; assay type: cell-based, Escherichia coli; details: Gram-negative
# From the text: as §1, §2, §3, §4, §5, §6
# A. baumannii [7] = test: Minimum inhibition concentration, serial dilution; assay type: cell-based, Acinetobacter baumannii; details: Acinetobacter baumannii, 37 °C
# Description: as §7
# E. coli [8] = test: Minimum inhibition concentration, serial dilution; assay type: cell-based, Escherichia coli; details: Escherichia coli, 37 °C
# Description: as §7
# any bacterial strain = test: Agar diffusion method, stated for all strains together; assay type: cell-based; details: in words
# From the text: as §1, §2, §3, §4, §5, §6
# P. aeruginosa [9] = test: Minimum inhibition concentration, serial dilution; assay type: cell-based, Pseudomonas aeruginosa; details: Pseudomonas aeruginosa, 37 °C
# Description: as §7
# St. mutans [10] = test: Agar diffusion method, inhibition zone diameter; assay type: cell-based; details: Gram-positive
# From the text: as §1, §2, §3, §4, §5, §6
# A. baumannii [11] = test: Agar diffusion method, inhibition zone diameter; assay type: cell-based, Acinetobacter baumannii; details: Gram-negative
# From the text: as §1, §2, §3, §4, §5, §6
# [12] = system: all tested Gram-negative and Gram-positive strains; test: Minimum inhibition concentration, stated for all tested strains together; assay type: cell-based
# Description: as §7
# [13] = biological target: dihydrofolate reductase in Escherichia coli (Escherichia coli, UniProt P0ABQ4); test: In vitro DHFR inhibition assessment; assay type: biochemical; details: for inhibitory activity against DHFR relative to trimethoprim: fold of trimethoprim, in words
# P. aeruginosa [14] = test: Agar diffusion method, inhibition zone diameter; assay type: cell-based, Pseudomonas aeruginosa; details: Gram-negative
# From the text: as §1, §2, §3, §4, §5, §6
# DHFR [15] = system: DHFR; set-up: method as in PMID 28789907; details: read-out: IC50 DHFR inhibition; cited from earlier work
# DHFR [16] = system: DHFR; set-up: method as in doi:10.1007/s00706-017-2032-7; details: read-out: IC50 against DHFR activity; cited from earlier work
# [17] = system: St. aureus, B. subtilis, K. pneumonia and E. coli; set-up: method as in doi:10.1007/s12039-020-01844-8; details: as printed in Fig. 2; cited from earlier work
# [18] = system: E. coli and P. aeruginosa; set-up: method as in earlier work; details: cited from earlier work
# dihydrofolate reductase in Escherichia coli, sequence (P0ABQ4 whole entry, the tested form may be a part): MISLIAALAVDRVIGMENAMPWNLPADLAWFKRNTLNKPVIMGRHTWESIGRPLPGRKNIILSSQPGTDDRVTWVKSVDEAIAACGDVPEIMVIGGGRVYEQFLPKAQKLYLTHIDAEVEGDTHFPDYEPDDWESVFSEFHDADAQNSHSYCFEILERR
compound,measurement,setting,value
"O=C(Cc1nc2ccccc2s1)Nc1ccccc1 [2a, 2-(Benzo[d]thiazol-2-yl)-N-phenylacetamide]",IZD K. pneumonia,K. pneumonia [1],34 ± 0.8 mm
same,MIC,K. pneumonia [2],0.125 µg/mL
same,MIC,St. aureus [3],0.25 µg/mL
same,MIC,St. mutans [4],0.0625 µg/mL
same,IZD St. aureus,St. aureus [5],31 ± 1 mm
same,IZD E. coli,E. coli [6],34 ± 0.5 mm
same,MIC,A. baumannii [7],0.125 µg/mL
same,MIC,E. coli [8],0.25 µg/mL
"Cc1ccc(NC(=O)Cc2nc3ccccc3s2)cc1 [2b, 2-(Benzo[d]thiazol-2-yl)-N-(p-tolyl)acetamide]",antibacterial activity against any bacterial strain,any bacterial strain,no activity
"O=C(Cc1nc2ccccc2s1)Nc1ccc(Cl)cc1 [2c, 2-(Benzo[d]thiazol-2-yl)-N-(4-chlorophenyl)acetamide]",IZD K. pneumonia,K. pneumonia [1],35 ± 1 mm
same,MIC,P. aeruginosa [9],0.0312 µg/mL
same,MIC,K. pneumonia [2],0.0312 µg/mL
same,IZD St. mutans,St. mutans [10],25 ± 1 mm
same,IZD A. baumannii,A. baumannii [11],35 ± 1 mm
same,MIC,St. aureus [3],0.0312 µg/mL
same,MIC,St. mutans [4],0.0312 µg/mL
same,IZD St. aureus,St. aureus [5],28 ± 1 mm
same,MIC,[12],0.0312 µg/mL
same,IZD E. coli,E. coli [6],35 ± 1 mm
same,MIC,A. baumannii [7],0.0312 µg/mL
same,MIC,E. coli [8],0.0312 µg/mL
same,IC50,[13],3800 ± 198 nM
same,inhibitory activity against DHFR relative to trimethoprim,[13],about two-fold
same,IZD P. aeruginosa,P. aeruginosa [14],36 ± 1 mm
"O=C(Nc1ccccc1)C(=Cc1ccc(OC(=O)c2ccccc2)cc1)c1nc2ccccc2s1 [4m, 4-(2-(Benzo[d]thiazol-2-yl)-3-oxo-3-(phenylamino)prop-1-en-1-yl)phenylbenzoate]",IZD K. pneumonia,K. pneumonia [1],35 ± 1.1 mm
same,MIC,P. aeruginosa [9],0.0312 µg/mL
same,MIC,K. pneumonia [2],0.0312 µg/mL
same,IZD St. mutans,St. mutans [10],28 ± 1.1 mm
same,IZD A. baumannii,A. baumannii [11],35 ± 1.1 mm
same,MIC,St. aureus [3],0.0312 µg/mL
same,MIC,St. mutans [4],0.0312 µg/mL
same,IZD St. aureus,St. aureus [5],25 ± 1.1 mm
same,MIC,[12],0.0312 µg/mL
same,IZD E. coli,E. coli [6],35 ± 1.1 mm
same,MIC,A. baumannii [7],0.0312 µg/mL
same,MIC,E. coli [8],0.0312 µg/mL
same,IC50,[13],2440 ± 128 nM
same,inhibitory activity against DHFR relative to trimethoprim,[13],about four-fold
same,IZD P. aeruginosa,P. aeruginosa [14],30 ± 1 mm
"Cc1ccc(NC(=O)C(=Cc2ccc(OC(=O)c3ccccc3)cc2)c2nc3ccccc3s2)cc1 [4n, 4-(2-(Benzo[d]thiazol-2-yl)-3-oxo-3-(p-tolylamino)prop-1-en-1-yl)phenylbenzoate]",antibacterial activity against any bacterial strain,any bacterial strain,no antibacterial activity
"CC1(C)S[C@@H]2[C@H](NC(=O)[C@H](N)c3ccccc3)C(=O)N2[C@H]1C(=O)O [Ampicillin, reference compound]",IZD St. mutans,St. mutans [10],22 ± 0.1 mm
same,MIC,St. aureus [3],0.0625 µg/mL
same,MIC,St. mutans [4],0.0625 µg/mL
same,IZD St. aureus,St. aureus [5],29 ± 0.2 mm
Clc1ccc(/C=N/c2nc3ccccc3s2)cc1 [II],IC50,DHFR [15],31.2 nM
Nc1nc(N)c(-c2nc3ccccc3s2)c(CCCOC(=O)CCl)n1 [IV],IC50,DHFR [16],1300 nM
O=[N+]([O-])c1cccc(/C=N/c2nc3ccccc3s2)c1 [I],IC50,DHFR [15],41.5 nM
O=C1CSC(c2cccc(Cl)c2Cl)N1c1nc2cc(OC(F)(F)F)ccc2s1 (stereo not shown) [VII],MIC,[17],100 to 250 µg/mL
CC(=O)Nc1cc(-c2nc3ccccc3s2)ccc1OCC(=O)N/N=C/c1ccc(O)cc1 [V],MIC,[18],0.2 µg/mL
